Reference: patent US20080227797A1, “Pyridopyrimidine Derivatives as Pde4 Inhibitors for the Treatment of Inflammatory and Immune Diseases” (ASTRAZENECA AB, priority 2005, published 2008)

Target: recombinant Human Phosphodiesterase B2 (PDE4B2) (Homo sapiens, UniProt Q07343)
Experiment: Human Phosphodiesterase B2 Alpha Screen Assay
Assay type: biochemical
Settings: cAMP substrate, Alpha Screen cAMP kit, 60 minutes at room temperature
Description: Human Phosphodiesterase B2 Alpha Screen Assay
The assay uses recombinant Human Phosphodiesterase B2 (PDE4B2) produced in house (PrAZL0133), stored at −20° C. The substrate uses cAMP, part of the Alpha Screen cAMP kit (Perkin Elmer, Cat# 6760625M), stored at 4° C. The Alpha Screen kit also includes biotinylated cAMP, acceptor and donor beads.
The assay additions were as follows: Test compounds and controls were added to white 384-well flat-bottom plates (Greiner, Cat# 781075), 0.2 μl in 100% DMSO, followed by 10 μl PDE4B2 in reaction buffer. The reaction buffer constitution was: 50 mM Tris (pH 7.5), 8.3 mM MgCl2, 1.7 mM EGTA and 0.01% (w/v) Brij®35. The enzyme and the compounds were incubated at room temperature for 15 minutes. Then 10 μl cAMP in reaction buffer was added. The assay was stopped after 60 minutes incubation at room temperature by adding 10 μl acceptor beads in detection buffer with 40 mM EDTA. The detection buffer constitution was: 5 mM Tris (pH 7.5), 0.1% (w/v) BSA and 0.1% (v/v) Tween 20. This addition followed by an addition of 10 μl donor beads in detection buffer, with biotinylated cAMP. The plates were then incubated, dark at room temperature, for 5 hours followed by measurement on a Fusion™-α analyser. IC50 values (presented in Table 1) were determined using Xlfit curve fitting using model 205.

recombinant Human Phosphodiesterase B2 (PDE4B2), sequence (Q07343 1-564 isoform Q07343-2): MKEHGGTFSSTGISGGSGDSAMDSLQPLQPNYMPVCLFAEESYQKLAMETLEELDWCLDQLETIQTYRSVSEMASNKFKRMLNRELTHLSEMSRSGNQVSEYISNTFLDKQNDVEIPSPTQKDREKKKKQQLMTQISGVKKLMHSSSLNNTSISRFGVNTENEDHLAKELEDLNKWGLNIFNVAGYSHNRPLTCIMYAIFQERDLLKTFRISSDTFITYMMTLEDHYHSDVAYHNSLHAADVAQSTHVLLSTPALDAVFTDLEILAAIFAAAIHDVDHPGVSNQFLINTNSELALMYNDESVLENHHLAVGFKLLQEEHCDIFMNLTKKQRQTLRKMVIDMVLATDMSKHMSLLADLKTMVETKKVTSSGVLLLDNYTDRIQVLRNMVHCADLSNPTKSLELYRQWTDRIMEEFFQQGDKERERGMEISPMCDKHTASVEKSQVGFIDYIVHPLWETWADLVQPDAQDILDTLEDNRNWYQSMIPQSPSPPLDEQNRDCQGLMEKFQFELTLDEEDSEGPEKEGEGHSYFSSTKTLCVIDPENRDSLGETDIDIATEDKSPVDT

Row | Compound | IC50 [nM]
1 | O=C(N[C@H]1CC[C@@H](n2c(=O)c3cc(F)cnc3n(-c3ccc(F)c(F)c3)c2=O)CC1)C(O)c1ccccc1 (relative stereo) [Example 2, N-{cis-4-[1-(3,4-difluorophenyl)-6-fluoro-2,4-dioxo-1,4-dihydropyrido[2,3-d]pyrimidin-3(2H)-yl]cyclohexyl}-2-hydroxy-2-phenylacetamide] | 0.9
2 | Cc1ccc(O)c(C(=O)N[C@H]2CC[C@@H](N3C(=O)c4cc(F)cnc4N(c4ccc(F)c(F)c4)[S+]3[O-])CC2)c1 (relative stereo) [Example 46, N-{cis-4-[1-(3,4-Difluorophenyl)-6-fluoro-2-oxido-4-oxo-1,4-dihydro-3H-pyrido[2,3-c][1,2,6]thiadiazin-3-yl]cyclohexyl}-2-hydroxy-5-methylbenzamide] | 129
3 | CN1CCCC(C(=O)N[C@H]2CC[C@@H](n3c(=O)c4cc(F)cnc4n(-c4ccc(F)c(F)c4)c3=O)CC2)C1 (relative stereo) [Example 99, N-{cis-4-[1-(3,4-difluorophenyl)-6-fluoro-2,4-dioxo-1,4-dihydropyrido[2,3-d]pyrimidin-3(2H)-yl]cyclohexyl}-1-methylpiperidine-3-carboxamide] | 6.01
4 | O=C(N[C@H]1CC[C@@H](n2c(=O)c3cc(F)cnc3n(-c3ccc(F)c(F)c3)c2=O)CC1)c1cc(CO)ccc1O [Example 1, N-{cis-4-[1-(3,4-difluorophenyl)-6-fluoro-2,4-dioxo-1,4-dihydropyrido[2,3-d]pyrimidin-3(2H)-yl]cyclohexyl}-2-hydroxy-5-(hydroxymethyl)benzamide] | 4.9
5 | O=C(CO)N[C@H]1CC[C@@H](n2c(=O)c3cc(F)cnc3n(-c3ccc(F)c(F)c3)c2=O)CC1 [Example 3, N-{cis-4-[1-(3,4-difluorophenyl)-6-fluoro-2,4-dioxo-1,4-dihydropyrido[2,3-d]pyrimidin-3(2H)-yl]cyclohexyl}-2-hydroxyacetamide] | 16.3
6 | O=C(N[C@H]1CC[C@@H](n2c(=O)c3cc(F)cnc3n(-c3ccc(F)c(F)c3)c2=O)CC1)c1cc(Cl)ccc1O [Example 4, 5-chloro-N-{cis-4-[1-(3,4-difluorophenyl)-6-fluoro-2,4-dioxo-1,4-dihydropyrido[2,3-d]pyrimidin-3(2H)-yl]cyclohexyl}-2-hydroxybenzamide] | 5
7 | O=C(N[C@H]1CC[C@@H](n2c(=O)c3cc(F)cnc3n(-c3ccc(F)c(F)c3)c2=O)CC1)c1cccc(O)c1 [Example 5, N-{cis-4-[1-(3,4-difluorophenyl)-6-fluoro-2,4-dioxo-1,4-dihydropyrido[2,3-d]pyrimidin-3(2H)-yl]cyclohexyl}-3-hydroxybenzamide] | 2.2
8 | O=C(N[C@H]1CC[C@@H](n2c(=O)c3cc(F)cnc3n(-c3ccc(F)c(F)c3)c2=O)CC1)c1ccc(O)cc1 [Example 6, N-{cis-4-[1-(3,4-difluorophenyl)-6-fluoro-2,4-dioxo-1,4-dihydropyrido[2,3-d]pyrimidin-3(2H)-yl]cyclohexyl}-4-hydroxybenzamide] | 2.3
9 | COC(=O)c1ccccc1C(=O)N[C@H]1CC[C@@H](n2c(=O)c3cc(F)cnc3n(-c3ccc(F)c(F)c3)c2=O)CC1 [Example 7, methyl 2-[({cis-4-[1-(3,4-difluorophenyl)-6-fluoro-2,4-dioxo-1,4-dihydropyrido[2,3-d]pyrimidin-3(2H)-yl]cyclohexyl}amino)carbonyl]benzoate] | 3
10 | O=C(Cc1ccc(O)cc1)N[C@H]1CC[C@@H](n2c(=O)c3cc(F)cnc3n(-c3ccc(F)c(F)c3)c2=O)CC1 [Example 8, N-{cis-4-[1-(3,4-difluorophenyl)-6-fluoro-2,4-dioxo-1,4-dihydropyrido[2,3-d]pyrimidin-3(2H)-yl]cyclohexyl}-2-(4-hydroxyphenyl)acetamide] | 2.2
11 | Cc1ccc(C(=O)N[C@H]2CC[C@@H](n3c(=O)c4cc(F)cnc4n(-c4ccc(F)c(F)c4)c3=O)CC2)c(O)c1 [Example 9, N-{cis-4-[1-(3,4-difluorophenyl)-6-fluoro-2,4-dioxo-1,4-dihydropyrido[2,3-d]pyrimidin-3(2H)-yl]cyclohexyl}-2-hydroxy-4-methylbenzamide] | 1.3
12 | O=C(N[C@H]1CC[C@@H](n2c(=O)c3cc(F)cnc3n(-c3ccc(F)c(F)c3)c2=O)CC1)c1ccccc1O [Example 10, N-{cis-4-[1-(3,4-difluorophenyl)-6-fluoro-2,4-dioxo-1,4-dihydropyrido[2,3-d]pyrimidin-3(2H)-yl]cyclohexyl}-2-hydroxybenzamide] | 2.6
13 | O=C(N[C@H]1CC[C@@H](n2c(=O)c3cc(F)cnc3n(-c3ccc(F)c(F)c3)c2=O)CC1)c1ncccc1O [Example 11, N-{cis-4-[1-(3,4-difluorophenyl)-6-fluoro-2,4-dioxo-1,4-dihydropyrido[2,3-d]pyrimidin-3(2H)-yl]cyclohexyl}-3-hydroxypyridine-2-carboxamide] | 3.4
14 | O=C(N[C@H]1CC[C@@H](n2c(=O)c3cc(F)cnc3n(-c3ccc(F)c(F)c3)c2=O)CC1)c1ccc(O)c(Cl)c1 [Example 12, 3-chloro-N-{cis-4-[1-(3,4-difluorophenyl)-6-fluoro-2,4-dioxo-1,4-dihydropyrido[2,3-d]pyrimidin-3(2H)-yl]cyclohexyl}-4-hydroxybenzamide] | 2.2
15 | Cc1c(O)cccc1C(=O)N[C@H]1CC[C@@H](n2c(=O)c3cc(F)cnc3n(-c3ccc(F)c(F)c3)c2=O)CC1 [Example 13, N-{cis-4-[1-(3,4-difluorophenyl)-6-fluoro-2,4-dioxo-1,4-dihydropyrido[2,3-d]pyrimidin-3(2H)-yl]cyclohexyl}-3-hydroxy-2-methylbenzamide] | 3.2
16 | COc1cc(C(=O)N[C@H]2CC[C@@H](n3c(=O)c4cc(F)cnc4n(-c4ccc(F)c(F)c4)c3=O)CC2)ccc1O [Example 14, N-{cis-4-[1-(3,4-difluorophenyl)-6-fluoro-2,4-dioxo-1,4-dihydropyrido[2,3-d]pyrimidin-3(2H)-yl]cyclohexyl}-4-hydroxy-3-methoxybenzamide] | 1.5
17 | Cc1ccc(C(=O)N[C@H]2CC[C@@H](n3c(=O)c4cc(F)cnc4n(-c4ccc(F)c(F)c4)c3=O)CC2)cc1O [Example 15, N-{cis-4-[1-(3,4-difluorophenyl)-6-fluoro-2,4-dioxo-1,4-dihydropyrido[2,3-d]pyrimidin-3(2H)-yl]cyclohexyl}-3-hydroxy-4-methylbenzamide] | 1.3
18 | COc1cccc(O)c1C(=O)N[C@H]1CC[C@@H](n2c(=O)c3cc(F)cnc3n(-c3ccc(F)c(F)c3)c2=O)CC1 [Example 16, N-{cis-4-[1-(3,4-difluorophenyl)-6-fluoro-2,4-dioxo-1,4-dihydropyrido[2,3-d]pyrimidin-3(2H)-yl]cyclohexyl}-2-hydroxy-6-methoxybenzamide] | 2.1
19 | COc1cccc(C(=O)N[C@H]2CC[C@@H](n3c(=O)c4cc(F)cnc4n(-c4ccc(F)c(F)c4)c3=O)CC2)c1O [Example 17, N-{cis-4-[1-(3,4-difluorophenyl)-6-fluoro-2,4-dioxo-1,4-dihydropyrido[2,3-d]pyrimidin-3(2H)-yl]cyclohexyl}-2-hydroxy-3-methoxybenzamide] | 1.8
20 | O=C(N[C@H]1CC[C@@H](n2c(=O)c3cc(F)cnc3n(-c3ccc(F)c(F)c3)c2=O)CC1)c1ccc(Cl)cc1O [Example 18, 4-chloro-N-{cis-4-[1-(3,4-difluorophenyl)-6-fluoro-2,4-dioxo-1,4-dihydropyrido[2,3-d]pyrimidin-3(2H)-yl]cyclohexyl}-2-hydroxybenzamide] | 2.7
